From ChEMBL document CHEMBL4483862, “Open-source discovery of chemical leads for next-generation chemoprotective antimalarials” (2018)

Test system: Plasmodium berghei
Assay: Luciferase/luciferin-expressing antifolate-resistant parasites were used to infect a culture of HepG2 cells that were pre-incubated with compounds. Infected hepatocytes emit light due to the luciferase reaction. Assay results are presented as the percent inhibition of light emission compared to control. […]
Type: functional
Settings: sporozoite; for IC90: read-out: LUCIFERASE INFECTION ASSAY - IC90
[1] = read-out: LUCIFERASE INFECTION ASSAY - IC50

Row | Structure (SMILES) | IC50 [1] [µM] | IC90 [µM] | also measured
1 | NS(=O)(=O)c1ccc(N/N=C/c2cn(-c3ccccc3)nc2-c2cccs2)c([N+](=O)[O-])c1 | > 10 | > 10 | 
2 | COc1ccc(N(C)S(=O)(=O)c2cccc(C(=O)Nc3ccc(Br)c(C(F)(F)F)c3)c2)cc1 | > 10 | > 10 | 
3 | COc1cc2c(cc1OC)C(c1ccccc1Cl)N(C(=O)c1sc3ccccc3c1Cl)CC2 (centres undefined) |  | > 6.62 | IC50 (PBLUC_HILL_SLOPE 2.93, PBLUC_R_SQUARED 0.186, read-out: LUCIFERASE INFECTION ASSAY - IC50): 4.9 µM
4 | O=C(N/N=C1/C(=O)c2cccc3cccc1c23)c1ccccc1-n1cccc1 |  | > 10 | IC50 (PBLUC_HILL_SLOPE 0.275, PBLUC_R_SQUARED 0.0663, read-out: LUCIFERASE INFECTION ASSAY - IC50): > 10 µM
5 | NC(Cc1ccccc1)c1csc(NC(=O)NC(c2ccccc2)c2ccccc2)n1 (centres undefined) | > 7.7 | > 7.7 | 
6 | O=C(Nc1ccc(Nc2ccccc2)cc1)c1[nH]nc2ccccc12 |  | > 10 | IC50 (PBLUC_HILL_SLOPE 16, PBLUC_R_SQUARED 0.594, read-out: LUCIFERASE INFECTION ASSAY - IC50): 8.92 µM
7 | OCc1ccccc1-c1cn2c(-c3ccc4ncccc4c3)cnc2cn1 |  | 0.468 | IC50 (HEPG2TOX_HILL_SLOPE 0.72, HEPG2TOX_R_SQUARED 0.902, PBLUC_HILL_SLOPE 1.49, PBLUC_R_SQUARED 0.863, read-out: LUCIFERASE INFECTION ASSAY - IC50): 0.107 µM
8 | CC(C)Cc1ccc(C(=O)CC(Sc2ccccc2N)c2cccc([N+](=O)[O-])c2)cc1 (centres undefined) |  | 2.86 | IC50 (FFLUC_HILL_SLOPE 39.9, FFLUC_R_SQUARED 0.525, PBLUC_HILL_SLOPE 1.28, PBLUC_R_SQUARED 0.727, read-out: LUCIFERASE INFECTION ASSAY - IC50): 0.511 µM
9 | COc1cc2c(C#N)c(N3CCc4ccccc4C3)nc(N)c2c(N)n1 | > 10 | > 10 | 
10 | Cc1cc(-c2ccccc2)[s+]c(-c2ccccc2)c1 |  | > 10 | IC50 (FFLUC_HILL_SLOPE 1.28, FFLUC_R_SQUARED 0.852, PBLUC_HILL_SLOPE 0.191, PBLUC_R_SQUARED 0.106, read-out: LUCIFERASE INFECTION ASSAY - IC50): > 10 µM
11 | Cc1cc(C(C)(C)C)cc(C)c1CCN1C(=O)CSC1c1cccnc1 (centres undefined) | > 10 | > 10 | 
12 | NC(=O)C1CN(S(=O)(=O)c2cc(Cl)sc2Cl)c2ccccc2O1 (centres undefined) | > 10 | > 10 | 
13 | CC1(c2cc(F)ccc2F)NC(=O)N(CC(=O)c2cn(CCC#N)c3ccccc23)C1=O (centres undefined) | > 10 | > 10 | 
14 | CC(C)(C)C1=CSC(=C2Sc3ccccc3C2=O)N1 |  | > 11.4 | IC50 (FFLUC_HILL_SLOPE 1.22, FFLUC_R_SQUARED 0.112, read-out: LUCIFERASE INFECTION ASSAY - IC50): > 11.4 µM
15 | CCN(c1ccccc1)S(=O)(=O)c1ccc(Cl)c(C(=O)Nc2ccn(C)n2)c1 | > 10 | > 10 | 
16 | CCOC(=O)c1cc(C#N)c(C)nc1Sc1ccccc1NC(=O)Nc1ccc(SC(F)(F)F)cc1 | > 6.2 | > 6.2 | 

Row | Structure (SMILES) | IC50 [1] [µM] | IC90 [µM] | also measured
17 | Cc1csc2nc(CNC(c3ccc(C4CCCCC4)cc3)C(C)C)cc(=O)n12 (centres undefined) |  | 4.73 | IC50 (PBLUC_HILL_SLOPE 9.21, PBLUC_R_SQUARED 0.523, read-out: LUCIFERASE INFECTION ASSAY - IC50): 3.73 µM
18 | COc1ccc(-c2cnc(N)c(-c3cccnc3)c2)cc1OC |  | 9.72 | IC50 (HEPG2TOX_HILL_SLOPE 1.35, HEPG2TOX_R_SQUARED 0.969, PBLUC_HILL_SLOPE 2.37, PBLUC_R_SQUARED 0.379, read-out: LUCIFERASE INFECTION ASSAY - IC50): 3.85 µM
19 | COc1cncc(-c2cnc3sc(NCC4CCOCC4)nn23)c1 |  | 1.51 | IC50 (HEPG2TOX_HILL_SLOPE 1.52, HEPG2TOX_R_SQUARED 0.935, PBLUC_HILL_SLOPE 11.6, PBLUC_R_SQUARED 0.526, read-out: LUCIFERASE INFECTION ASSAY - IC50): 1.25 µM
20 | O=c1cc(CSc2nc3ccccc3s2)[nH]c2nc3ccccc3n12 |  | 3.5 | IC50 (PBLUC_HILL_SLOPE 13.4, PBLUC_R_SQUARED 0.218, read-out: LUCIFERASE INFECTION ASSAY - IC50): 2.97 µM
21 | N#CC1=C2SC=C(c3ccc(Br)cc3)N2CCCC1=O | > 10 | > 10 | 
22 | COc1cc(/C=N/n2cnc3scc(-c4ccc(C)cc4)c3c2=O)ccc1OC(=O)OC(C)(C)C |  | > 10 | IC50 (HEPG2TOX_HILL_SLOPE 2.15, HEPG2TOX_R_SQUARED 0.967, PBLUC_HILL_SLOPE 2.51, PBLUC_R_SQUARED 0.415, read-out: LUCIFERASE INFECTION ASSAY - IC50): 4.26 µM
23 | CNC(=O)c1cccc(NC(=O)c2ccc3[nH]c4c(c3c2)CCCC4)c1 |  | > 10 | IC50 (HEPG2TOX_HILL_SLOPE 15.2, HEPG2TOX_R_SQUARED 0.62, read-out: LUCIFERASE INFECTION ASSAY - IC50): > 10 µM
24 | COc1cccc2cc(C(=O)/C=C/c3c(C)nc4sc(C)cn34)oc12 | > 10 | > 10 | 
25 | C=CCNC(=S)N1CCc2sccc2C1c1ccc(OC)cc1 (centres undefined) |  | > 9.58 | IC50 (PBLUC_HILL_SLOPE 0.135, PBLUC_R_SQUARED 0.112, read-out: LUCIFERASE INFECTION ASSAY - IC50): > 9.58 µM
26 | Cc1n(C)c2c([n+]1C)C(=O)c1ccccc1C2=O |  | 0.128 | IC50 (HEPG2TOX_HILL_SLOPE 0.401, HEPG2TOX_R_SQUARED 0.884, PBLUC_HILL_SLOPE 1.09, PBLUC_R_SQUARED 0.944, read-out: LUCIFERASE INFECTION ASSAY - IC50): 0.017 µM
27 | COc1cc(C)c2c(c1)C=CC1C2CCC2(C)C(O)CCC12 (centres undefined) | > 11.1 | > 11.1 | 
28 | CNC(=O)c1ccc(CN(C2CC2)S(=O)(=O)c2cc(C)ccc2C)cc1 |  | 5.44 | IC50 (HEPG2TOX_HILL_SLOPE 1.06, HEPG2TOX_R_SQUARED 0.677, PBLUC_HILL_SLOPE 1.71, PBLUC_R_SQUARED 0.782, read-out: LUCIFERASE INFECTION ASSAY - IC50): 1.51 µM
29 | c1ccc(Oc2cccc(-c3ccc4nnc(-c5ccccc5)n4c3)c2)cc1 | > 10 | > 10 | 
30 | O=C(Nc1ncccc1O)c1csc(COc2ccc(Cl)cc2)n1 |  | 7.89 | IC50 (HEPG2TOX_HILL_SLOPE 10.3, HEPG2TOX_R_SQUARED 0.899, PBLUC_HILL_SLOPE 4.56, PBLUC_R_SQUARED 0.315, read-out: LUCIFERASE INFECTION ASSAY - IC50): 4.88 µM
31 | O=C(Nc1ccccc1)Nc1ccc(C(=O)Nc2cc(C(F)(F)F)ccc2N2CCOCC2)s1 |  | 5.82 | IC50 (HEPG2TOX_HILL_SLOPE 11.7, HEPG2TOX_R_SQUARED 0.346, PBLUC_HILL_SLOPE 5.22, 24.2, PBLUC_R_SQUARED 0.290, 0.170, read-out: LUCIFERASE INFECTION ASSAY - IC50): 4.29 µM
32 | Cc1ccc(-n2c(C)cc(/C=C(\C#N)c3nc4ccccc4s3)c2C)cc1C | > 10 | > 10 | 
